In brackets after ≈: the same amount, converted by molar mass.
Key:
murine podocytes [1] = assay: Podocyte HCS phenotypic assay, PAN-induced podocyte injury; format: cell-based; settings: for prevention of PAN induced injury, dose-response of percent damaged cells (FIG. 4A-4P): 30 ug/ml PAN, co-treatment, multi-parameter algorithm
Protocol: Conditionally immortalized human and murine podocytes were used in a majority of the assays. Human and murine podocytes were cultured as have been described previously (Saleem et al., JASN 13, 630-638 (2002); Mundel, Reiser et al., Experimental Cell Research, 236, p 248 (1997)). For example, murine podocytes derived from the mouse line H-2Kb-tsA58 were cultured under permissive conditions at 33° C. on rat-tail collagen coated dishes in RPMI medium supplemented with 10% heat inactivated FBS, penicillin and streptomycin (100 U/ml), and 10 U/ml recombinant mouse γ-interferon. Cells were then trypsinized and re-plated for differentiation at 37° C. in medium without γ-interferon. The cells were differentiated for 0 to 7 days and then reseeded to rat-tail collagen coated multi-well plates at a density of 1500/well or 500/well for 96 and 384 well plates, respectively. Cells were then further differentiated for another 5-14 days in the multi-well plates for subsequent experimentation with various reagents prior to fixation and analyses.
In some embodiments, podocytes were cultured at 37° C. for the first 7 days of differentiation in large tissue culture flasks and subsequently reseeded and further cultured at 37° C. in the 96-well assay plates for the next 4-6 days to provide low well-to-well variability in cell number in the assay plates and healthy podocytes expressing specific and well characterized podocyte markers synaptopodin and podocin.
Differentiated podocytes were cultured in 96-well or 384-well multiwall optical plates (PerkinElmer, Boston, Mass.). In some embodiments, differentiated podocytes were treated with various amounts of puromycin aminonucleoside (PAN), […] LPS, Adriamycin and other agents. In some embodiments, the cells were co-treated with chemical and other agents (such as mizouribine) to prevent damage from damaging agents (such as PAN). In other embodiments, the rescue agents were added 0-48 h after the addition of injury causing agents. In some embodiments, patient samples such as blood, serum, urine or other samples were added to differentiated podocytes to identify disease causing agents. In some embodiments, primary, differentiated patient podocytes were cultured to identify defects in structure and/or function.
After culturing for the appropriate time and treatment or control, cultured podocytes in multi-well optical plates were rinsed with phosphate buffered saline (PBS) and subsequently fixed using a solution of paraformaldehyde and sucrose in PBS (at a final concentration of 4% paraformaldehyde and 2% sucrose in PBS) for 30 min at room temperature. Following fixation, the cells were permeabilization using a solution of 0.3% Triton X-100 in PBS for 15 min at room temperature. For visualization of filamentous-actin (F-Actin) in cells, cells were stained with a solution of Alexa fluor 568 phalloidin (Invitrogen), as previously described. HCS CellMask Blue (Invitrogen) was used as a fluorescent stain for visualizing nuclei, cytoplasm and the individual cell boundaries. Additional proteins that were fluorescently labeled and analyzed using appropriate primary mAbs include synaptopodin (synpo, primary mAb from Santa Cruz), Paxillin (primary mAb clone Y113 from Millipore) for quantitation of focal adhesions, beta1 integrin, podocin, WT1 nephrin, CD2-AP may also be used. Other proteins may also be used for labeling. Appropriate secondary antibodies (fluorescently labeled) were used for fluorescent visualizations. High throughput confocal microscopy was done using the Opera LX (Perkin Elmer) with filters and exposure times according to manufacturer's instructions and as described before. Images were used in subsequent image analysis for quantitation of a variety of cellular parameters. Assays were performed in replicate wells for assay robustness.
Images for each frame of each well in multiple fluorescent channels were acquired using OPERA imaging system. […]

murine podocytes [2] = assay: Primary HCS screen of chemical library, cell roundness Z score, PAN injury; format: cell-based; settings: PAN 16 μg/ml, 48 hours; for primary hit (protects podocytes from PAN damage): Z-score cutoff ≦−1.28
Protocol: Screening of chemical libraries, which include the MicroSource Spectrum collection (MicroSource Discovery Systems, Inc., Gaylorsville, C T, 2000 compounds) and Enzo kinase inhibitor array (Enzo Life Sciences, Farmingdale, N.Y., 80 compounds), Sigma, Millipore, Tocris and Cayman (41 compounds), was performed using multiwall plates. Podocytes cultured in multiwall plates were used in these assays. 100 nL of each compound, also in multiwall plates (at a stock concentration of 1 mM to 10 mM in DMSO), was added to each well of a podocyte containing multiwall plate using the Perkin Elmer Janus automated workstation with the help of a 96-pin or 384-pin pin tool (100 nL, PerkinElmer). The compounds were added in the absence or presence of podocyte damaging agent (such as PAN). The plates containing the compounds were subsequently placed in tissue culture incubators and cells were further cultured for 1-72 h at 37° C. A compound that decreased PAN damaged was identified by quantifying the changes in at least one of the following parameters: cell morphology, cell roundedness, F-actin intensity, number of focal adhesions, intensity or size of focal adhesions, length of actin fibers, size of actin fibers, percent damaged or percent healthy cells etc. In certain cases, hits were validated by acquiring a fresh batch of the compound from commercial sources and performing dose-response curves. Images from the primary screen were quantified for cell morphology parameter and were normalized by calculating z-score (z) for each test compound, to compensate for any plate-to-plate variability. (Wiggins, Kidney International, 2007) z was calculated for each of the test compounds using the formula: […]
where x is the raw measured value with each compound, μ is the mean of all measured raw values across a plate and a is the standard deviation of the measurements. A z-score of […], corresponding to 90% population under the curve, was used as a cutoff to identify primary hits in the assay.
To identify small molecules that protect podocytes from PAN injury, a chemical library of 2121 pharmacologically active compounds was screened. Podocytes were treated with compounds from the chemical library in the presence of PAN (16 μg/ml) at 37° C. for 48 hours. The assay plates also contained eight positive (PAN and MZR treatment) and eight negative (PAN treatment) control wells. Wells were imaged and analyzed, and the mean cell roundness per cell was calculated for each well. Mean cell roundness was normalized using plate-based positive and negative controls, and a Z score for the change in cell morphology on treatment with each compound (SD away from the plate mean) was calculated. The results from the screen are presented as a graph in FIG. 7A. Wells with nuclei counts. […] Primary hits (compounds that protected podocytes from PAN damage) were identified from the assay using a Z-score cutoff of ≦−1.28 corresponding to the 10% population on one side of the bell-shaped curve. […] Given that our assay is image based, the images from all initial hits were visually inspected manually, which eliminated 10 compounds as nonhits. […] The identified list of primary hit compounds included three Rho kinase inhibitors (Y27632, GSK 429286, and Thiazovivin) and a p38 kinase inhibitor (SB 203580). […] Next, to validate the hit compounds identified from our screen, selected primary hits were reanalyzed using independently obtained powder forms of the compounds.

Row | Molecule | prevention of PAN induced injury, dose-response of percent damaged cells (FIG. 4A-4P) (murine podocytes [1]) | primary hit (protects podocytes from PAN damage) (murine podocytes [2]) | other results
1 | Derusnin | prevented PAN induced injury | – | –
2 | Mundeserone | prevented PAN induced injury | – | –
3 | C[C@@H](N)[C@H]1CC[C@H](C(=O)Nc2ccncc2)CC1 [Y27632] | prevented PAN induced injury | primary hit | –
4 | Agelasine | prevented PAN induced injury | primary hits | –
5 | CN(C)c1ncnc2c1ncn2[C@@H]1O[C@H](CO)[C@@H](N)[C@H]1O [PAN, puromycin aminonucleoside] | – | – | PAN concentration causing half-maximal damage (murine podocytes [1]; Mus musculus, 48 h, read-out: PAN concentration causing half-maximal damage (half-maximal inhibitory concentration)): 16 µg/mL
6 | Cc1cccc(-c2[nH]ncc2-c2ccc3ncccc3n2)n1 [Alk5 Inhibitor2] | prevented PAN induced injury | – | –
7 | Nc1[nH]nc2nnc(-c3c(-c4ccccc4)nn4ccccc34)cc12 [FR 180204] | prevented PAN induced injury | – | –
8 | O=C(NCc1ccccc1)c1csc(Nc2ccncn2)n1 [Thiazovivin] | – | primary hit | –
9 | COc1ccc(-c2cc(=O)c3c(O)cc(O)cc3o2)cc1O [Diosmetin] | prevented PAN induced injury | – | –
10 | C#C[C@]1(OC(C)=O)CC[C@H]2[C@@H]3CCC4=CC(=NO)CC[C@@H]4[C@H]3CC[C@@]21CC (mixture of isomers) [norgestimate] | – | identified | –
11 | COc1cc2nc(N3CCN(C(=O)C4COc5ccccc5O4)CC3)nc(N)c2cc1OC (stereo not shown) [Doxazocin] | prevented PAN induced injury | primary hits | –
12 | COc1ccc2cc3[n+](cc2c1OC)CCc1cc2c(cc1-3)OCO2 [Berberine] | prevented PAN induced injury | primary hits | –
13 | antimycin A | – | primary hits | –
14 | NC(=O)c1ncn([C@@H]2O[C@H](CO)[C@@H](O)[C@H]2O)c1O [MZR, Mizoribine] | – | – | EC50 (murine podocytes [1]; Mus musculus, PAN 30 μg/ml, 48 hours, read-out: concentration reducing PAN damage by one half (half-maximal effective concentration)): 1.4 µg/mL (≈ 5.4 µM); concentration affording complete protection of podocytes from PAN injury (murine podocytes [1]; PAN 30 μg/ml, 48 hours): 5 µg/mL; dose-dependent protection of podocytes from PAN-induced injury (murine podocytes [1]; PAN 16-30 μg/ml, 48 hours, F-actin fibers and other parameters): dose-dependent protection; Z score of cell roundness (murine podocytes [2]; 37° C., negative Z score = active): −2.31±0.2
15 | CC1=C(C(=O)Nc2cc3cn[nH]c3cc2F)C(c2ccc(C(F)(F)F)cc2)CC(=O)N1 (stereo not shown) [GSK429286] | prevented PAN induced injury | primary hit | –
16 | C[C@@H]1C[C@H]2[C@@H]3CCC4=CC(=O)C=C[C@]4(C)[C@@]3(F)[C@@H](O)C[C@]2(C)[C@@]1(O)C(=O)CO [DEX, Dexamethasone] | – | – | lowest concentration able to protect cells from PAN damage (murine podocytes [1]; PAN 30 μg/ml, F-actin fiber count, 48 h): 0.1 µM
17 | COc1nccc(-c2c(-c3ccc(F)cc3)ncn2C2CCC(O)CC2)n1 (stereo not shown) [P38 inhibitor (SB239063)] | prevented PAN induced injury | – | –
18 | C[S+]([O-])c1ccc(-c2nc(-c3ccncc3)c(-c3ccc(F)cc3)[nH]2)cc1 (stereo not shown) [SB 203580] | – | primary hit | –
19 | C=CC[C@]1(O)CC[C@H]2[C@@H]3CCC4=CC(=O)CCC4=C3C=C[C@@]21C [altrenogest] | – | identified | –
20 | CCOc1ccc(Cc2nccc3cc(OCC)c(OCC)cc23)cc1OCC [Ethaverine] | prevented PAN induced injury | – | –
21 | O=C1Cc2c([nH]c3ccc(Br)cc23)-c2ccccc2N1 [Kenpoullon] | prevented PAN induced injury | – | –
22 | Nc1nc2nc[nH]c2c(=S)[nH]1 [Thioguanidine] | prevented PAN induced injury | primary hits | –
23 | O=c1cc(-c2ccc(O)cc2)oc2cc(O)cc(O)c12 [Apigenin] | prevented PAN induced injury | primary hits | –
24 | c1coc(CNc2ncnc3[nH]cnc23)c1 [Kinetin] | prevented PAN induced injury | – | –

From patent publication US20170269060A1, “Assays and Compounds to Treat Kidney Diseases” (Rush University Medical Center, priority 2014, published 2017)
